# From US20250332183A1, “COMPOSITIONS AND METHODS FOR THE STIMULATION OF INTERMEDIATE MACROPHAGES AND TREATMENTS THEREWITH” (priority 2024, published 2025)
# Entries after “also recorded” stand apart in the source; their conditions may differ. Read-outs that look alike come from different tables or passages of the source.
# Assays:
# [1] = Plasma pharmacokinetics of AVR-48 after iv dosing in preterm lambs; type: in vivo, lamb
# Description: Formulation and dosing of AVR-48. AVR-48 (3 mg/mL) was formulated in 0.9% sterile saline and filtered through a 0.2-micron syringe filter into 10 mL serum vials ready for dosing. The efficacy dose was determined in a pilot study by stepwise escalating the AVR-48 dose concentrations. […] The vehicle control groups received 0.9% sterile saline every 12 hours (h).
# Pharmacokinetic study. The pharmacokinetics (PK) of AVR-48 were determined using plasma from the PT lambs following twice daily IV infusion (10 min) of AVR-48 every 12 h for 7 days. Tested doses were 0 (n=2), 0.1 (n=1), 0.3 (n=1), 1.0 (n=2), 3.0 (n=3), and 9 (n=1) mg/kg. PK evaluation for AVR-48 was only performed for DOL1 (12 time points between 0 and 12 h after the initial dose; volume of plasma samples through DOL2-7 was inadequate for PK evaluation). Quality-controlled plasma bioanalytical data were transferred from the Bioanalytical group to the PK Scientist of the Biopharmaceutics Department of Pharmascience Inc. Samples were analyzed, using Phoenix WinNonlin software, version 8.1 (Certara, USA), using a previously standardized HPLC/LC/MS method.
# [2] = system: preterm lamb model of BPD; assay: Survival and growth in mechanically ventilated preterm lamb BPD model; type: in vivo
# Description: For dose-optimization, preterm (PT) lambs were delivered at ˜128d (d; saccular stage of lung development; ˜85% gestation) after maternal antenatal steroids exposure. […] After delivery and surfactant administration, PT lambs were maintained on invasive mechanical ventilation (IMV) for 7d followed by 3d noninvasive respiratory support. For the early-stage study, outcomes were determined for PT lambs over DOL1-10. For the late-stage study, outcomes were determined for former preterm (FPT) lambs (vehicle, AVR-48 treated) that were weaned from respiratory support after 10d and were maintained in the lamb intensive care unit for a further 80d. Outcomes included functional, structural, molecular, and neurobehavioral assessments. Term reference lambs that were never ventilated were used as developmental references for the FPT lambs.
# Study timeline. FIGS. 1A and 1B show the timeline for the two-endpoint study using two groups of PT lambs. The first endpoint used PT lambs managed by IMV for 7d, followed by extubation to noninvasive respiratory support (NRS) for up to 3d of life (DOL7-10). At that time, terminal tissues were collected. The second endpoint used the same management protocol, followed by weaning the lambs from respiratory support and having them live in the lamb intensive care unit as former PT (FPT) lambs for 2 months corrected postnatal age (3 months chronological age, DOL 90). The rationale for the 2-month corrected postnatal age for FPT lambs is when sheep are weaned from milk, equivalent to about 12-18 months for humans. Methods for the FPT lamb model have been reported.^14,17
# PT lamb model and methods for all outcome measures. Surgical preparation and management of lamb groups. Delivery and clinical management methods for PT lambs (6-8) and FPT lambs (3, 4). Briefly, time-pregnant ewes that had single or twin fetuses at ˜128d (˜85%) gestation (term ˜150d gestation) were used (main FIGS. 1A and 1B). The fetuses were exposed to antenatal steroids (dexamethasone) at ˜48 h and ˜24 h before Cesarean-section (exit-procedure) delivery. […]
# [3] = system: TLR4 and pathway-related cytokines, apoptosis, proliferation and permeability markers in lung tissue homogenates; assay: Immunoblot and RT-PCR of lamb lung tissue homogenates; type: in vivo
# Description: For molecular analyses, the right caudal lobe was cut into 1 cm^3 pieces (˜1 g each), again using systematic, uniform, random sampling methods. The lung pieces were from peripheral tissue devoid of visceral pleura and central airways, vessels, and connective tissue. The pieces were snap-frozen in liquid nitrogen and stored at −80° C. Homogenates of frozen tissue pieces were used for quantitative real-time RT-PCR and immunoblot analyses. Expression of mRNA was normalized to GAPDH. For immunoblot analysis, cleaved caspase 3 was used (EnzoADI-AAP-113, Enzo Life Sciences, Inc., Farmingdale, NY), PCNA (ab2426, Abcam, Cambridge, MA), and VEGF-R2 (sc-393163, Santa Cruz Biotechnology, Dallas, TX) proteins. Positive controls for immunoblot were the respective native proteins. Protein abundance was normalized, using Memcode (P124585, Fisher Scientific, Pittsburgh, PA).
# [4] = system: bronchoalveolar lavage fluid (BALf); assay: Total protein (BCA) and TNF-α in lamb bronchoalveolar lavage fluid; type: in vivo
# Description: ELISA and BCA assay methods. BCA assay: The lamb BAL fluid samples (10d and 90d terminal studies) were centrifuged to remove the cell pellets, and the supernatant was used to assess the total protein using the Pierce™ BCA Protein Assay Kits, which were read using a BioTek synergy H1 microplate reader (Fisher Scientific, Toronto, ON, Canada).
# ELISA: The serum and bronchoalveolar lavage (BAL) fluid samples were used to quantify cytokine and soluble CD163 (sCD163) concentrations. The ELISA experiment analysis used commercially available ELISA kits, which were quantified using a plate reader. The inventors used GraphPad Prism V. 10.4. All sheep (ovine) ELISA kits were used within the expiry dates. Ovine IL-1β(Cat #ELO-IL1β), and ovine IL-6 (Cat #ELO-IL6) ELISA kits were purchased from RayBiotech, Peachtree Corners, GA, USA, sheep IL-10 (Cat #E12817Sh-96) was purchased from Lifeome Biolabs, Oceanside, CA, sheep CD163 (cat #MBS9364870) was purchased from MyBioSource, Inc. San Diego, CA, and Pierce™ BCA Protein Assay Kit (Cat #23227) from Thermo Fischer Scientific, Rockford, IL.
# [5] = system: cord blood mononuclear cells (CBMCs); assay: Macrophage lineage in CBMCs; type: cell-based, human; details: 100 μM and LPS 50 ng/mL, 72 h (3d), HLA-DRlow/CD163high
# Description: N=3, *P<0.05, Two-way ANOVA was used for statistical analysis.
# [6] = system: hPBMCs; assay: Macrophage lineage in hPBMCs over 3, 7 and 10 days; type: cell-based, human; details: 100 μM
# [7] = system: mice; assay: Ovalbumin vaccination mouse model with CFA/IFA; type: in vivo; details: AVR-48 along with Ovalbumin±CFA/IFA, day 28
# Description: Study Design: N=4/per group (Balbc/6J, 6-7 months old). Group-1: (OVA+CFA) 1st dose; (OVA+IFA) 2nd dose; OVA-3rd dose; Group 2: OVA+CFA+AVR-48 1st dose; OVA+IFA+AVR-48 2nd dose; OVA+AVR-48 3rd dose; and Group 3: OVA+IFA+AVR48 1st dose; OVA+IFA+AVR-48 2nd dose; OVA+AVR-48 3rd dose.
# Outcome measures: Immune cell quantification (FACS) in the spleen and IgG in serum (ELISA).
# In vivo study: In one study, C57Bl/6J mice (n=4/group) were dosed intramuscularly (IM) with either complete Freund's adjuvant (CFA) or incomplete Freund's adjuvant (IFA) along with AVR-48 for a 28-day study using a prime-boost-boost regimen. In the second study, mice were dosed with MPLA and Flu-peptide using only the priming dose regimen (no booster). Splenic immune cells and plasma immunoglobin concentrations were assessed at day 28.
# [8] = efficacy dose 10 mg/kg intraperitoneal injection; read-out: Cmax in mouse pups' plasma; cited from earlier work
# [9] = 3.00 mg/kg bid iv, Day 1, 0 to 12 hr post dose, lamb plasma
# [10] = 3.00 mg/kg bid iv, Day 1, lamb plasma
# [11] = late-stage study, FPT lambs vs FPT vehicle
structure (smiles),measurement,setting,value
CC(=O)NC1C(Oc2ccc([N+](=O)[O-])cc2)OC(CO)C(O)C1O (stereo not shown) [AVR-48],AUC(0-t),[1]; [9],4222.9 ± 1835.9 ng·h/mL
same,Cmax,[1]; [9],3885.7 ± 1458.7 ng/mL
same,Tmax,"[1]; 3.00 mg/kg bid iv, Day 1, 0 to 12 hr post dose, male and female lamb plasma",15 min
same,"C0 (theoretical Cmax, concentration extrapolated to 0 hr)",[1]; [10],5138.8 ng/mL
same,CL,[1]; [10],13.19 mL/min/kg
same,T1/2,[1]; [10],38.4 ± 14.4 min
same,Tlast,[1]; [10],4.75 h
same,Vd,[1]; [10],0.6684 ± 0.129 L/kg
same,plasma concentration 15 minutes after each repeat dosing,"[1]; 3.0 mg/kg iv every 12 h for 7 d, lamb plasma",3886.6 ± 619.7 ng/mL
same,Cmax,"[1]; 3.0 mg/kg/dose iv, lamb plasma, read-out: Cmax",10.7 µM
same,Exposure (AUC(0-t)) over the dose range tested,[1]; 0.1-9 mg/kg/dose iv,increased dose-relatedly; also recorded: increased in a dose-related manner
same,repeat dose Cmax,"[1]; iv every 12 h for 7 d, 0.1-9 mg/kg/dose",consistent and dose-dependent
same,survival,"[2]; early-stage study, PT lambs",~100%
same,survival,"[2]; late-stage study d10-d90, FPT lambs, 3.0 mg/kg iv every 12 h DOL1-7",80%
same,body weight,"[2]; late-stage study, FPT AVR-48 lambs vs FPT vehicle lambs",significantly increased
same,P53 in lung,"[3]; 90-day study, vs FPT vehicle lamb lungs",higher
same,cleaved caspase-3 protein levels in lung,"[3]; DOL10, PT lambs vs vehicle",significantly lower level
same,"mRNA levels for p53, caspase-3, c-Myc, and TGF-β in lung","[3]; DOL10, PT lambs vs vehicle",No significant difference
same,relative mRNA levels of TLR4 and cytokines in lung,"[3]; PT lambs vs control, FPT and term lambs",No differences were found
same,protein concentration of TLR4 and pathway-related cytokines in lung tissue,[3]; early-stage study,no differences were detected
same,VEGF-A protein level in lung,"[3]; early-stage study, 10d, PT group vs vehicle",significant decrease
same,TLR4 protein concentration (relative protein level) in lung tissue,"[3]; late-stage study (DOL90), FPT AVR-48 lambs",0.007±0.004
same,TLR4 protein concentration in lung tissue vs vehicle,"[3]; late-stage study (DOL90), FPT lambs vs FPT vehicle",significantly lower
same,"mRNA expression and protein level for VEGF-A, VEGFR2, and SP-B in lung","[3]; late-stage study, 90d, FPT AVR-48 vs FPT vehicle",no significant difference
same,IL-6 protein in lung tissue,[3]; [11],appeared lower (not significant)
same,IL-10 protein concentration in lung tissue,[3]; [11],appeared higher (not significant)
same,TNF-α protein in lung tissue,[3]; [11],appeared lower (not significant)
same,total protein concentration in BALf,"[4]; 10 days, PT lambs vs vehicle",decreased total protein concentration
same,total protein concentration in BALf,"[4]; 90 days, FPT lambs",no difference was observed
same,TNF-α concentration in BALf,[4]; early and late-stage studies,No significant change
same,macrophage lineage,[5],preference for intermediate macrophage lineage
same,macrophage lineage,[6]; day 3 (IFN-γ high CD206 high),highest % of intermediate macrophage
same,macrophage lineage,[6]; day 7 (IFN-γ low CD206 high),polarizing to M2 phenotype
same,macrophage lineage,[6]; day 10 (IFN-γ high CD206 low),finally to M1
same,CD138+/CD38+/CD27+ plasma cells in mouse spleen,[7],Increased
same,IgG in serum,[7],Increased
same,Cmax,[8],5.7 µM
